According to US20120083522A1, “MODULATION OF INFLAMMATORY RESPONSES BY FACTOR XI” (Isis Pharmaceuitcals, inc., priority 2009, published 2012):
In the oligonucleotide strings, read from the 5' end, every base follows the letter of its sugar. An asterisk marks phosphorothioate; unmarked linkages are phosphodiester. Other units and linkages are bracketed, terminal groups are in braces. A string of capitals states the bases alone. e = 2'-O-(2-methoxyethyl) (MOE); [5mC] = 5-methylcytosine; d = 2'-deoxy (DNA)

Tested on: human Factor XI mRNA
Assay: Antisense inhibition in HepG2 cells by microwalk gapmers, 8,000 nM, electroporation (Example 14)
Type: cell-based
Conditions: HepG2 cells, 8,000 nM
Protocol: These microwalk gapmers were tested in vitro. Cultured HepG2 cells at a density of 20,000 cells per well were transfected using electroporation with 8,000 nM antisense oligonucleotide. After a treatment period of approximately 24 hours, RNA was isolated from the cells and Factor XI mRNA levels were measured by quantitative real-time PCR. Factor XI mRNA levels were adjusted according to total RNA content, as measured by RIBOGREEN. Results are presented as percent inhibition of Factor XI, relative to untreated control cells.
The chimeric antisense oligonucleotides in Table 51 were designed as 5-10-5 MOE, 5-8-5 and 6-8-6 MOE gapmers. The first two listed gapmers in Table 51 are the original gapmers (ISIS 416850 and ISIS 416858) from which ISIS 445493-445543 were designed via microwalk, and are designated by an asterisk. The 5-10-5 gapmers are 20 nucleotides in length, wherein the central gap segment is comprised of ten 2′-deoxynucleotides and is flanked on both sides (in the 5′ and 3′ directions) by wings comprising five nucleotides each. The 5-8-5 gapmers are 18 nucleotides in length, wherein the central gap segment is comprised of eight 2′-deoxynucleotides and is flanked on both sides (in the 5′ and 3′ directions) by wings comprising five nucleotides each. The 6-8-6 gapmers are 20 nucleotides in length, wherein the central gap segment is comprised of eight 2′-deoxynucleotides and is flanked on both sides (in the 5′ and 3′ directions) by wings comprising six nucleotides each. For each of the motifs (5-10-5, 5-8-5 and 6-8-6), each nucleotide in the 5′ wing segment and each nucleotide in the 3′ wing segment has a 2′-MOE modification. The internucleoside linkages throughout each gapmer are phosphorothioate (P═S) linkages. All cytidine residues throughout each gapmer are 5-methylcytidines. “Human Target start site” indicates the 5′-most nucleotide to which the gapmer is targeted in the human sequence. “Human Target stop site” indicates the 3′-most nucleotide to which the gapmer is targeted in the human sequence. Each gapmer listed in Table 51 is targeted to SEQ ID NO: 1 (GENBANK Accession No. NM_000128.3). Each gapmer is Table 51 is also fully cross-reactive with the rhesus monkey Factor XI gene sequence, designated herein as SEQ ID NO: 274 (exons 1-15 GENBANK Accession No. NW—001118167.1). ‘Rhesus monkey start site’ indicates the 5′-most nucleotide to which the gapmer is targeted in the rhesus monkey sequence. ‘Rhesus monkey stop site’ indicates the 3′-most nucleotide to which the gapmer is targeted to the rhesus monkey sequence.

Substance | Percent inhibition of human Factor XI mRNA levels [%]
445493 (antisense eA*e[5mC]*eA*eG*eT*eT*dT*d[5mC]*dT*dG*dG*d[5mC]*dA*dG*eG*e[5mC]*e[5mC]*eT*e[5mC]*eG) [compound 445493] | 69
445494 (antisense CACAGTTTCTGGCAGGCCTC; 6-8-6 gapmer chemistry, chemistry not fully specified) [compound 445494] | 85
